Experimental data taken from the CheMixHub viscosity set.

Test: xn = mol fraction of the nth substance listed

COCCOCCOC + CCCCCCO
101 kPa
Settings | viscosity [mPa·s]
293.15 K, x1 = 0.04448 | 4.368
293.15 K, x1 = 0.105 | 3.527
293.15 K, x1 = 0.1942 | 2.714
293.15 K, x1 = 0.3018 | 2.148
293.15 K, x1 = 0.4004 | 1.796
293.15 K, x1 = 0.4511 | 1.674
293.15 K, x1 = 0.6059 | 1.383
293.15 K, x1 = 0.6997 | 1.285
293.15 K, x1 = 0.7893 | 1.204
293.15 K, x1 = 0.9139 | 1.128
293.15 K, x1 = 0.9331 | 1.117
303.15 K, x1 = 0.04385 | 3.29
303.15 K, x1 = 0.09867 | 2.69
303.15 K, x1 = 0.1894 | 2.153
303.15 K, x1 = 0.2974 | 1.72
303.15 K, x1 = 0.4047 | 1.435
303.15 K, x1 = 0.4914 | 1.28
303.15 K, x1 = 0.6035 | 1.141
303.15 K, x1 = 0.7106 | 1.046
303.15 K, x1 = 0.7884 | 0.996
303.15 K, x1 = 0.9193 | 0.945
303.15 K, x1 = 0.942 | 0.937
313.15 K, x1 = 0.04597 | 2.536
313.15 K, x1 = 0.09846 | 2.162
313.15 K, x1 = 0.1996 | 1.706
313.15 K, x1 = 0.2989 | 1.412
313.15 K, x1 = 0.4011 | 1.226
313.15 K, x1 = 0.4983 | 1.089
313.15 K, x1 = 0.5998 | 0.991
313.15 K, x1 = 0.7041 | 0.916
313.15 K, x1 = 0.7993 | 0.866
313.15 K, x1 = 0.9072 | 0.825
313.15 K, x1 = 0.942 | 0.815

CCCCCCn1cc[n+](C)c1.F[B-](F)(F)F + CCCCCO
101.33 kPa, x1 = 0.135
Settings | viscosity [mPa·s]
315 K | 5.305
315.75 K | 4.745

CCCCCCN + CCCCN(CCCC)CCCC
viscosity [mPa·s], 101 kPa
Settings | x2 = 0.1032 | x2 = 0.1936 | x2 = 0.3936 | x2 = 0.4924 | x2 = 0.6079 | x2 = 0.782 | x2 = 0.9153
303.15 K | 0.7562 | 0.7958 | 0.8857 | 0.9301 | 0.9836 | 1.063 | 1.125
313.15 K | 0.6517 | 0.6853 | 0.7606 | 0.7985 | 0.8436 | 0.9122 | 0.9652

Oc1ccccc1 + CCCCN(CCCC)CCCC
298.16 K, 101 kPa
Settings | viscosity [mPa·s]
x1 = 0.5219 | 9.41
x1 = 0.6008 | 14.9
x1 = 0.6531 | 23.52
x1 = 0.6723 | 27.66
x1 = 0.7083 | 43.54
x1 = 0.7386 | 64.37
x1 = 0.7532 | 78.43
x1 = 0.7783 | 108.3
x1 = 0.7981 | 126.2
x1 = 0.8207 | 131.2
x1 = 0.8248 | 125.7
x1 = 0.8491 | 110.5
x1 = 0.8704 | 84.32
x1 = 0.9022 | 56.08
x1 = 0.9213 | 40.37
x1 = 0.9711 | 20.65

Oc1ccccc1 + CCCCNCCCC
298.16 K, 101 kPa
Settings | viscosity [mPa·s]
x1 = 0.5012 | 5.109
x1 = 0.6086 | 13.4
x1 = 0.6558 | 20.06
x1 = 0.6934 | 34.09
x1 = 0.7223 | 46.47
x1 = 0.753 | 64.82
x1 = 0.7713 | 74.82
x1 = 0.7925 | 84.1
x1 = 0.8147 | 89.23
x1 = 0.8446 | 82.1
x1 = 0.875 | 62.86
x1 = 0.8948 | 49.73

COC(=O)OC + CCCCO
Settings | viscosity [mPa·s]
293.15 K, 101 kPa, x1 = 0.05212 | 2.427
293.15 K, 101 kPa, x1 = 0.09994 | 2.071
293.15 K, 101 kPa, x1 = 0.191 | 1.611
293.15 K, 101 kPa, x1 = 0.2904 | 1.291
293.15 K, 101 kPa, x1 = 0.4109 | 1.029
293.15 K, 101 kPa, x1 = 0.4555 | 0.957
293.15 K, 101 kPa, x1 = 0.6133 | 0.775
293.15 K, 101 kPa, x1 = 0.7008 | 0.71
293.15 K, 101 kPa, x1 = 0.8063 | 0.656
293.15 K, 101 kPa, x1 = 0.907 | 0.63
293.15 K, 101 kPa, x1 = 0.9512 | 0.636
293.15 K, 101.3 kPa, x1 = 0.0518 | 2.461
293.15 K, 101.3 kPa, x1 = 0.0975 | 2.119
293.15 K, 101.3 kPa, x1 = 0.1961 | 1.586
293.15 K, 101.3 kPa, x1 = 0.3064 | 1.218
293.15 K, 101.3 kPa, x1 = 0.4108 | 1.023
293.15 K, 101.3 kPa, x1 = 0.4769 | 0.929
293.15 K, 101.3 kPa, x1 = 0.6101 | 0.794
293.15 K, 101.3 kPa, x1 = 0.7043 | 0.719
293.15 K, 101.3 kPa, x1 = 0.8043 | 0.644
293.15 K, 101.3 kPa, x1 = 0.9052 | 0.607
293.15 K, 101.3 kPa, x1 = 0.9508 | 0.605
298.15 K, 101.3 kPa, x1 = 0.0527 | 2.192
298.15 K, 101.3 kPa, x1 = 0.1009 | 1.877
298.15 K, 101.3 kPa, x1 = 0.2002 | 1.411
298.15 K, 101.3 kPa, x1 = 0.2986 | 1.127
298.15 K, 101.3 kPa, x1 = 0.3974 | 0.952
298.15 K, 101.3 kPa, x1 = 0.5039 | 0.831
298.15 K, 101.3 kPa, x1 = 0.6008 | 0.748
298.15 K, 101.3 kPa, x1 = 0.7028 | 0.673
298.15 K, 101.3 kPa, x1 = 0.8011 | 0.611
298.15 K, 101.3 kPa, x1 = 0.8965 | 0.572
298.15 K, 101.3 kPa, x1 = 0.9503 | 0.569
303.15 K, 101 kPa, x1 = 0.0494 | 1.938
303.15 K, 101 kPa, x1 = 0.1058 | 1.648
303.15 K, 101 kPa, x1 = 0.2154 | 1.256
303.15 K, 101 kPa, x1 = 0.2915 | 1.077
303.15 K, 101 kPa, x1 = 0.4086 | 0.882
303.15 K, 101 kPa, x1 = 0.5007 | 0.769
303.15 K, 101 kPa, x1 = 0.5847 | 0.697
303.15 K, 101 kPa, x1 = 0.7003 | 0.622
303.15 K, 101 kPa, x1 = 0.798 | 0.581
303.15 K, 101 kPa, x1 = 0.9065 | 0.553
303.15 K, 101 kPa, x1 = 0.9587 | 0.551
303.15 K, 101.3 kPa, x1 = 0.0249 | 2.078
303.15 K, 101.3 kPa, x1 = 0.096 | 1.666
303.15 K, 101.3 kPa, x1 = 0.1911 | 1.304
303.15 K, 101.3 kPa, x1 = 0.2998 | 1.046
303.15 K, 101.3 kPa, x1 = 0.3877 | 0.903
303.15 K, 101.3 kPa, x1 = 0.4799 | 0.787
303.15 K, 101.3 kPa, x1 = 0.5865 | 0.681
303.15 K, 101.3 kPa, x1 = 0.6907 | 0.608
303.15 K, 101.3 kPa, x1 = 0.7931 | 0.564
303.15 K, 101.3 kPa, x1 = 0.8925 | 0.547
303.15 K, 101.3 kPa, x1 = 0.9464 | 0.542
313.15 K, 101 kPa, x1 = 0.04725 | 1.542
313.15 K, 101 kPa, x1 = 0.1216 | 1.252
313.15 K, 101 kPa, x1 = 0.2016 | 1.027
313.15 K, 101 kPa, x1 = 0.2876 | 0.857
313.15 K, 101 kPa, x1 = 0.3956 | 0.712
313.15 K, 101 kPa, x1 = 0.414 | 0.693
313.15 K, 101 kPa, x1 = 0.6043 | 0.552
313.15 K, 101 kPa, x1 = 0.6975 | 0.511
313.15 K, 101 kPa, x1 = 0.8019 | 0.484
313.15 K, 101 kPa, x1 = 0.9062 | 0.477
313.15 K, 101 kPa, x1 = 0.9368 | 0.479
313.15 K, 101.3 kPa, x1 = 0.0499 | 1.536
313.15 K, 101.3 kPa, x1 = 0.0998 | 1.351
313.15 K, 101.3 kPa, x1 = 0.2234 | 1.018
313.15 K, 101.3 kPa, x1 = 0.3 | 0.88
313.15 K, 101.3 kPa, x1 = 0.3991 | 0.752
313.15 K, 101.3 kPa, x1 = 0.5054 | 0.662
313.15 K, 101.3 kPa, x1 = 0.603 | 0.598
313.15 K, 101.3 kPa, x1 = 0.6904 | 0.557
313.15 K, 101.3 kPa, x1 = 0.8009 | 0.52
313.15 K, 101.3 kPa, x1 = 0.9014 | 0.497
313.15 K, 101.3 kPa, x1 = 0.9471 | 0.494

COCCOCCOC + CCCCO
viscosity [mPa·s], 101 kPa
Settings | x1 = 0.1051 | x1 = 0.2018 | x1 = 0.3019 | x1 = 0.4029 | x1 = 0.5049 | x1 = 0.6017 | x1 = 0.7049 | x1 = 0.7983 | x1 = 0.9023
298.15 K | 1.866 | 1.542 | 1.304 | 1.178 | 1.103 | 1.048 | 1.019 | 0.998 | 0.989
308.15 K | 1.48 | 1.252 | 1.074 | 0.983 | 0.924 | 0.883 | 0.863 | 0.849 | 0.842
318.15 K | 1.186 | 1.028 | 0.906 | 0.827 | 0.782 | 0.762 | 0.74 | 0.73 | 0.723

Cc1ccc(S(=O)O[C@@H]2C[C@H](C)CC[C@H]2C(C)C)cc1 (some centres not stated) + CCCCO
298 K, 101.3 kPa
Settings | viscosity [mPa·s]
x1 = 0.00285 | 2.53
x1 = 0.00515 | 2.538
x1 = 0.007672 | 2.595
x1 = 0.01005 | 2.623
x1 = 0.01302 | 2.653
x1 = 0.01567 | 2.683

COCCOCCOC + CCCCOC(C)=O
viscosity [mPa·s], 101.33 kPa
Settings | x1 = 0.0863 | x1 = 0.1754 | x1 = 0.2733 | x1 = 0.3672 | x1 = 0.4639 | x1 = 0.5609 | x1 = 0.6688 | x1 = 0.8022 | x1 = 0.8835
298.15 K | 0.706 | 0.734 | 0.764 | 0.791 | 0.822 | 0.852 | 0.884 | 0.924 | 0.948
303.15 K | 0.659 | 0.684 | 0.712 | 0.736 | 0.764 | 0.791 | 0.82 | 0.856 | 0.878
308.15 K | 0.616 | 0.639 | 0.664 | 0.686 | 0.714 | 0.737 | 0.768 | 0.796 | 0.816
313.15 K | 0.578 | 0.599 | 0.622 | 0.641 | 0.665 | 0.69 | 0.712 | 0.742 | 0.759
318.15 K | 0.542 | 0.562 | 0.583 | 0.601 | 0.622 | 0.642 | 0.665 | 0.692 | 0.709
